Measured values taken from patent US20110152212A1, “Aqueous Formulations” (priority 2007, published 2011).
≈ marks a conversion by molar mass, not a printed value.

Tests used:
[1] = Intrinsic solubility of drug; assay type: physicochemical
Excerpt: (§1) J. Pharm 302(2005), 18-28 and S. I. F. Badaway et al, Int. J. Pharmaceut.128(1996), 45-54.

[2] = Solubility in Example 7 formulation (hydrogel in 50:50 wt % water/ethanol); assay type: physicochemical; settings: 50:50 wt % water/ethanol with polyvinylalcohol and butylidene polymer; for solubility: aqueous with cosolvent or surfactant or cyclodextrin
Excerpt: As an alternative to the general procedure described in Example 2 and the procedures described in other examples, a solvent may comprise a 50:50 wt % water/ethanol solution. The polyvinylalcohol and butylidene polymer may be included in such a solvent and the mixture may then be acidified to a pH of not less than 2.5 to cause polyvinylalcohol and butylidene polymer to react in an acid catalysed reaction. A drug of low solubility may then be added to the mixture as described in the other examples.
as §1

[3] = Solubility in 10% w/v hydroxypropyl cyclodextrin solution; assay type: physicochemical; settings: for solubility: 10% w/v hydroxypropyl cyclodextrin solution, aqueous with cosolvent or surfactant or cyclodextrin, read-out: Solubility in 10% w/v Hydroxypropyl Cyclodextrin soln.
Excerpt: as §1

physchem = settings: pH 2.5, aqueous with cosolvent or surfactant or cyclodextrin, thermodynamic from solid
[4] = Time for solid drug to dissolve in acidified hydrogel mixture at ambient temperature with stirring; assay type: physicochemical; settings: 0.2 wt % drug in 0.5 wt % hydrogel, pH about 2.5, ambient temperature
Experimental: A 0.5 wt % formulation of a hydrogel was prepared comprising Poval 220 polyvinylalcohol and the butylidene polymer of Example 1 in the weight ratio 10:1. The pH of the mixture was lowered to about 2.5 by addition of hydrochloric acid and, with the pH at the lowered level, doxorubicin, a solid red powder, was added at ambient temperature with stirring to give a level of 0.2 wt % doxorubicin in the mixture. […] After the formulation has been prepared, the pH may be raised to about 7 by addition of alkali to neutralise it.
A 2 wt % formulation of a hydrogel was prepared comprising KH-20 polyvinylalcohol and the butylidene polymer of Example 1 in a weight ratio 10:1. The pH of the mixture was lowered to about 2.5, by addition of hydrochloric acid. Then, doxycycline, in a solid form, was added at ambient temperature with stirring to give a level of 0.5 wt % of doxycycline in the mixture. The doxycycline appeared to dissolve in the water within about 15 minutes to give a clear pale yellow mixture which appeared to comprise a solution but more likely comprises complexed doxycycline.

[5] = aqueous formulation, Poval 220 polyvinylalcohol/butylidene polymer hydrogel (Example 3 process)

Row | Structure (SMILES) | Intrinsic Solubility [1] [µg/mL] | solubility [2] [µg/mL] | solubility [3] [µg/mL] | solubility [1] [µg/mL] | other results
1 | Clc1ccccc1C(c1ccccc1)(c1ccccc1)n1ccnc1 [Clotrimazole] | 70 | 11800 (≈ 34.2 mM) | 1210 (≈ 3.51 mM) | – | –
2 | Clc1ccc(COC(Cn2ccnc2)c2ccc(Cl)cc2Cl)cc1 (stereo not drawn) [Econazole] | – | 12600 (≈ 33 mM) | 4990 (≈ 13.1 mM) | 370 (≈ 0.969 mM) | –
3 | Clc1ccc(COC(Cn2ccnc2)c2ccc(Cl)cc2Cl)c(Cl)c1 (stereo not drawn) [Miconazole] | – | 4700 (≈ 11.3 mM) | 2460 (≈ 5.91 mM) | 90 (≈ 0.216 mM) | –
4 | CC(C)c1cccc(C(C)C)c1O [Propafol] | 160 | – | – | – | Example 7 formulation (solubility) [2]: 34800 µg/mL; Solubility in 10% w/v Hydroxypropyl Cyclodextrin soln. [3]: 7690 µg/mL (≈ 43.1 mM)
5 | COc1cccc2c1C(=O)c1c(O)c3c(c(O)c1C2=O)C[C@@](O)(C(=O)CO)C[C@@H]3O[C@H]1C[C@H](N)[C@H](O)[C@H](C)O1 [doxorubicin] | – | – | – | – | solubility (physchem): 115000 µg/mL (≈ 212 mM); appeared to dissolve in the water (time) [4]: substantially instantaneously; saturation solubility [5]: 11.5 % w/v
